Literature values in PubChem BioAssay AID1259409 (Chemical Carcinogenesis Research Information System (CCRIS), 2018).

System: rodent chemically induced tumor inhibition, incidence and multiplicity
Test: CCRIS tumor inhibitor studies

SMILES: CC[C@H](C)C(=O)O[C@H]1C[C@H](O)C=C2C=C[C@H](C)[C@H](CC[C@@H](O)C[C@@H](O)CC(=O)O)[C@H]21
- tumour outcome (control, treated, inhibition, significance) (Carcinogen: 1,2-DIMETHYLHYDRAZINE, 540-73-8, Dose [Inhibitor]: 0, 0.001% IN DRINKING WATER FOR 30 WK (STUDY DURATION: 30 WK), Route [Inhibitor]: ORAL, Species: MOUSE, Strain/Sex: ICR/FEMALE, Target Tissue: Type of Lesion: COLON: TUMOR, Dose [Carcinogen]: 10 MG/KG BW 1/WK FOR 15 WK, Promoter: NONE USED): 21/34 (62%), 14/30 (47%), 24%, not significant
- tumour outcome (control, treated, inhibition, significance) (Carcinogen: 1,2-DIMETHYLHYDRAZINE, 540-73-8, Dose [Inhibitor]: 0, 0.005% IN DRINKING WATER FOR 30 WK (STUDY DURATION: 30 WK), Route [Inhibitor]: ORAL, Species: MOUSE, Strain/Sex: ICR/FEMALE, Target Tissue: Type of Lesion: COLON: TUMOR, Dose [Carcinogen]: 10 MG/KG BW 1/WK FOR 15 WK, Promoter: NONE USED): 21/34 (62%), 13/30 (43%), 31%, not significant
- tumour outcome (control, treated, inhibition, significance) (Carcinogen: 1,2-DIMETHYLHYDRAZINE, 540-73-8, Dose [Inhibitor]: 0, 0.01% IN DRINKING WATER FOR 25 WK (STUDY DURATION: 25 WK), Route [Inhibitor]: ORAL, Species: MOUSE, Strain/Sex: ICR/FEMALE, Target Tissue: Type of Lesion: COLON: TUMOR, Dose [Carcinogen]: 10 MG/KG BW 1/WK FOR 15 WK, Promoter: NONE USED): 6/15 (40%), 2/15 (13%), 68%, not significant
- tumour outcome (control, treated, inhibition, significance) (Carcinogen: N-METHYL-N-NITROSOUREA, 684-93-5, Dose [Inhibitor]: 0, 1 PPM IN DRINKING WATER FOR 36 WK BEGINNING POST CARCINOGEN TREATMENT (STUDY DURATION: 40 WK), Route [Inhibitor]: ORAL, Species: RAT, Strain/Sex: F344/FEMALE, Target Tissue: Type of Lesion: COLON: ADENOCARCINOMA, Dose [Carcinogen]: 2 MG 3/WK FOR 3 WK, Promoter: NONE USED): 24/30 (80%), 23/30 (77%), 4%, not significant
- tumour outcome (control, treated, inhibition, significance) (Carcinogen: N-METHYL-N-NITROSOUREA, 684-93-5, Dose [Inhibitor]: 0, 5 PPM IN DRINKING WATER FOR 36 WK BEGINNING POST CARCINOGEN TREATMENT (STUDY DURATION: 40 WK), Route [Inhibitor]: ORAL, Species: RAT, Strain/Sex: F344/FEMALE, Target Tissue: Type of Lesion: COLON: ADENOCARCINOMA, Dose [Carcinogen]: 2 MG 3/WK FOR 3 WK, Promoter: NONE USED): 24/30 (80%), 14/29 (48%), 40%, p<0.05
- tumour outcome (control, treated, inhibition, significance) (Carcinogen: N-METHYL-N-NITROSOUREA, 684-93-5, Dose [Inhibitor]: 0, 25 PPM IN DRINKING WATER FOR 36 WK BEGINNING POST CARCINOGEN TREATMENT (STUDY DURATION: 40 WK), Route [Inhibitor]: ORAL, Species: RAT, Strain/Sex: F344/FEMALE, Target Tissue: Type of Lesion: COLON: ADENOCARCINOMA, Dose [Carcinogen]: 2 MG 3/WK FOR 3 WK, Promoter: NONE USED): 24/30 (80%), 15/30 (50%), 38%, p<0.05
- tumour outcome (control, treated, inhibition, significance) (Carcinogen: N-METHYL-N-NITROSOUREA, 684-93-5, Dose [Inhibitor]: 0, 200 PPM IN DRINKING WATER FOR 40 WK BEGINNING CONCURRENTLY WITH CARCINOGEN TREATMENT (STUDY DURATION: 40 WK), Route [Inhibitor]: ORAL, Species: RAT, Strain/Sex: F344/FEMALE, Target Tissue: Type of Lesion: COLON: ADENOCARCINOMA, Dose [Carcinogen]: 2 MG 3/WK FOR 2 WK, Promoter: NONE USED): 11/16 (69%), 10/16 (63%), 9%, not significant

SMILES: CCCCC(=O)O[C@H]1CC[C@H]2[C@@H]3CCc4cc(O)ccc4[C@H]3CC[C@]12C
- tumour outcome (control, treated, inhibition, significance) (Carcinogen: DIMETHYLNITROSAMINE, 62-75-9, Dose [Inhibitor]: 1 MG IN CASTOR OIL ADMINISTERED TO IMMATURE RATS 1/4 WK FOR LIFE BEGINNING 100 D POST CARCINOGEN DOSE (STUDY DURATION: 1, Route [Inhibitor]: SUBCUTANEOUS, Species: RAT, Strain/Sex: STRAIN-CD/MALE, Target Tissue: Type of Lesion: KIDNEY TUBULE: ADENOMA, Dose [Carcinogen]: 30 MG/KG IN DISTILLED WATER ONCE, Promoter: NONE USED): 15/28 (54%), 9/25 (36%), 33%, not calculated
- tumour outcome (control, treated, inhibition, significance) (Carcinogen: DIMETHYLNITROSAMINE, 62-75-9, Dose [Inhibitor]: 1 MG IN CASTOR OIL ADMINISTERED TO IMMATURE RATS 1/4 WK FOR LIFE BEGINNING 100 D POST CARCINOGEN DOSE (STUDY DURATION: 1, Route [Inhibitor]: SUBCUTANEOUS, Species: RAT, Strain/Sex: STRAIN-CD/MALE, Target Tissue: Type of Lesion: KIDNEY: MESENCHYMAL TUMOR, Dose [Carcinogen]: 30 MG/KG IN DISTILLED WATER ONCE, Promoter: NONE USED): 16/28 (57%), 14/25 (56%), 2%, not significant
- tumour outcome (control, treated, inhibition, significance) (Carcinogen: DIMETHYLNITROSAMINE, 62-75-9, Dose [Inhibitor]: 1 MG IN CASTOR OIL ADMINISTERED TO IMMATURE RATS 1/4 WK FOR LIFE BEGINNING 100 D POST CARCINOGEN DOSE (STUDY DURATION: 1, Route [Inhibitor]: SUBCUTANEOUS, Species: RAT, Strain/Sex: STRAIN-CD/MALE, Target Tissue: Type of Lesion: KIDNEY: TRANSITIONAL CELL TUMOR, Dose [Carcinogen]: 30 MG/KG IN DISTILLED WATER ONCE, Promoter: NONE USED): 1/28 (4%), 0/25 (0%), 100%, not significant
- tumour outcome (control, treated, inhibition, significance) (Carcinogen: DIMETHYLNITROSAMINE, 62-75-9, Dose [Inhibitor]: 1 MG IN CASTOR OIL ADMINISTERED TO IMMATURE RATS 1/4 WK FOR LIFE BEGINNING 100 D POST CARCINOGEN DOSE (STUDY DURATION: 1, Route [Inhibitor]: SUBCUTANEOUS, Species: RAT, Strain/Sex: STRAIN-CD/MALE, Target Tissue: Type of Lesion: LUNG: ALVEOGENIC TUMOR, Dose [Carcinogen]: 30 MG/KG IN DISTILLED WATER ONCE, Promoter: NONE USED): 19/28 (68%), 6/25 (24%), 65%, p<0.001
- tumour outcome (control, treated, inhibition, significance) (Carcinogen: DIMETHYLNITROSAMINE, 62-75-9, Dose [Inhibitor]: 1 MG IN CASTOR OIL ADMINISTERED TO MATURE RATS 1/4 WK FOR LIFE BEGINNING 100 D POST CARCINOGEN DOSE (STUDY DURATION: 140, Route [Inhibitor]: SUBCUTANEOUS, Species: RAT, Strain/Sex: STRAIN-CD/MALE, Target Tissue: Type of Lesion: KIDNEY TUBULE: ADENOMA, Dose [Carcinogen]: 30 MG/KG IN DISTILLED WATER ONCE, Promoter: NONE USED): 16/26 (62%), 18/28 (64%), -3%, not significant
- tumour outcome (control, treated, inhibition, significance) (Carcinogen: DIMETHYLNITROSAMINE, 62-75-9, Dose [Inhibitor]: 1 MG IN CASTOR OIL ADMINISTERED TO MATURE RATS 1/4 WK FOR LIFE BEGINNING 100 D POST CARCINOGEN DOSE (STUDY DURATION: 140, Route [Inhibitor]: SUBCUTANEOUS, Species: RAT, Strain/Sex: STRAIN-CD/MALE, Target Tissue: Type of Lesion: LUNG: ALVEOGENIC TUMOR, Dose [Carcinogen]: 30 MG/KG IN DISTILLED WATER ONCE, Promoter: NONE USED): 13/26 (50%), 3/28 (11%), 78%, p<0.05

SMILES: CCC[Se]C#N
- tumour outcome (control, treated, inhibition, significance) (Carcinogen: 7,12-DIMETHYLBENZ[A]ANTHRACENE, 57-97-6, Dose [Inhibitor]: 0.1, 2 PPM (SELENIUM) IN DIET FOR 3 WK BEGINNING 2 WK PRIOR TO CARCINOGEN DOSE (STUDY DURATION: 25 WK), Route [Inhibitor]: ORAL, Species: RAT, Strain/Sex: SPRAGUE-DAWLEY/FEMALE, Target Tissue: Type of Lesion: MAMMARY GLAND: TUMOR, Dose [Carcinogen]: 10 MG ONCE, Promoter: NONE USED): 25/30 (83%), 13/30 (43%), 48%, p<0.05

SMILES: CC(C)c1cc(C(=O)O)c(O)c(C(C)C)c1
- tumour outcome (control, treated, inhibition, significance) (Carcinogen: BENZO[A]PYRENE, 50-32-8, Dose [Inhibitor]: 2000 NMOL IN 0.2 ML ACETONE APPLIED ONCE TO DORSAL SKIN 15 MIN PRIOR TO CARCINOGEN DOSE (STUDY DURATION: 20 WK), Route [Inhibitor]: DERMAL, Species: MOUSE, Strain/Sex: SENCAR/FEMALE, Target Tissue: Type of Lesion: SKIN: PAPILLOMA, Dose [Carcinogen]: 200 NMOL IN 0.2 ML ACETONE ONCE): 97%, 96%, 0.3%, not significant
